US20260216347A1, “Substituted Imidazo-Based Compounds as Ligand Directed Degraders of IRAK3” (Celgene Corporation, priority 2022, published 2026)

Target: T1, IRAK3 (Homo sapiens, UniProt Q9Y616)
T1 construct: IRAK Endogenous HTRF Degradation Assay; endogenous in cells
T1 sequence (Q9Y616 1-596): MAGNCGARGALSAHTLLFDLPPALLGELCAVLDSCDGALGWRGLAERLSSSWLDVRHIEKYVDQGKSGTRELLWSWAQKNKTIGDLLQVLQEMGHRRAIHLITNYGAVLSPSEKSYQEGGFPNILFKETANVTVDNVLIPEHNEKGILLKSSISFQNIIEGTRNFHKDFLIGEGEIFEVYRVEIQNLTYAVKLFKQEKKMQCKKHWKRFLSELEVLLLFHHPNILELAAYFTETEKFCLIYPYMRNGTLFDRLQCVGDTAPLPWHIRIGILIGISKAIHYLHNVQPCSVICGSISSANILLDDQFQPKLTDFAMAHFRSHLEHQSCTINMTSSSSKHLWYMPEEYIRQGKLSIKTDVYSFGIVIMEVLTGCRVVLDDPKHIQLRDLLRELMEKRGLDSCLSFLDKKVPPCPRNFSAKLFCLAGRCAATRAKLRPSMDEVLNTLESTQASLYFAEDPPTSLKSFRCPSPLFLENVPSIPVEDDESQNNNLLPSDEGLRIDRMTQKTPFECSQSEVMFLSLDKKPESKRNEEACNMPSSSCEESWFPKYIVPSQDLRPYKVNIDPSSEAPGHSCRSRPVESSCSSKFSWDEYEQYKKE
Test: IRAK3 biochemical binding assay (LanthaScreen Eu Kinase Binding, TR-FRET)
Summary of the method: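 TR-FRET tracer-displacement binding with 10 nM IRAK3, 2 nM Eu-anti-GST antibody and 10 nM tracer in 50 mM HEPES pH 7.4, MgCl2, 1 mM EGTA, 0.01% Brij-35. Compounds in 3-fold dilutions, 1 h at room temperature. 665/615 nm ratio gave % inhibition; IC50 and Hill slope from dose-response fit.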

IC50 [nM] | Structure (SMILES)
2 | Cc1cc(-c2ccc(Nc3cnn(C4CCN(CCN5CCN(c6ccc(C7CCC(=O)NC7=O)cc6)CC5)CC4)c3)c3nccn23)c(F)cc1F (centres unmarked) [Compound 12, 3-(4-(4-(2-(4-(4-((5-(2,4-difluoro-5-methylphenyl)imdazo [1,2-a]pyridin-8-yl)amino)-1H-pyrazol-1-yl)piperidin-1-yl)ethyl)piperazin-1-yl)phenyl) piperidine-2,6-dione]
12 | Cc1cc(-c2cnc(Nc3cnn(C4CCN(CCN5CCN(c6ccc(C7CCC(=O)NC7=O)cc6)CC5)CC4)c3)c3nccn23)ccc1F (centres unmarked) [Compound 33, 3-(4-(4-(2-(4-(4-((5-(4-fluoro-3-methylphenyl)imdazo [1,2-a]pyrazin-8-yl)amino)-1H-pyrazol-1-yl)piperidin-1-yl)ethyl)piperazin-1-yl)phenyl) piperidine-2,6-dione]
8.9 | Cc1cc(-c2cnc(Nc3cnn([C@H]4CC[C@H](CCN5CCN(c6ccc(C7CCC(=O)NC7=O)cc6)CC5)CC4)c3)c3nccn23)c(F)cc1F (stereo partly drawn) [Compound 11, 3-(4-(4-(2-((trans)-4-(4-((5-(2,4-difluoro-5-methylphenyl)imidazo[1,2-a]pyrazin-8-yl)amino)-1H-pyrazol-1-yl)cyclohexyl)ethyl)piperazin-1-yl)phenyl)piperidine-2,6-dione]
17 | Cc1cc(-c2cnc(Nc3cnn([C@H]4CC[C@H](CCN5CCN(c6ccc([C@]7(C)CCC(=O)NC7=O)cc6)CC5)CC4)c3)c3nccn23)c(F)cc1F [Compound 82, (S)-3-(4-(4-(2-((trans)-4-(4-((5-(2,4-difluoro-5-methylphenyl)imidazo[1,2-a]pyrazin-8-yl)amino)-1H-pyrazol-1-yl)cyclohexyl)ethyl)piperazin-1-yl)phenyl)-3-methylpiperidine-2,6-dione]
140 | O=C1CCC(c2ccc(N3CCN(CCN4CCC(n5cc(Nc6ncc(-c7cccc(F)c7)n7ccnc67)cn5)CC4)CC3)cc2)C(=O)N1 (centres unmarked) [Compound 80, 3-(4-(4-(2-(4-(4-((5-(3-fluorophenyl)imidazo [1,2-a]pyrazin-8-yl)amino)-1H-pyrazol-1-yl)piperidin-1-yl)ethyl)piperazin-1-yl)phenyl) piperidine-2,6-dione]
4.2 | Cc1cccc(-c2cnc(Nc3cnn(C4CCN(CCN5CCN(c6ccc7c(c6)C(=O)N(C6CCC(=O)NC6=O)C7=O)CC5)CC4)c3)c3nccn23)c1 (centres unmarked) [Compound 2, 2-(2,6-dioxopiperidin-3-yl)-5-(4-(2-(4-(4-((5-(m-tolyl)imidazo[1,2-a]pyrazin-8-yl)amino)-1H-pyrazol-1-yl)piperidin-1-yl)ethyl)piperazin-1-yl)isoindoline-1,3-dione]
6.1 | Cc1cc(-c2cnc(Nc3cnn(C4CCN(CCN5CCN(c6cccc(C7CCC(=O)NC7=O)c6)CC5)CC4)c3)c3nccn23)c(F)cc1F (centres unmarked) [Compound 31, 3-(3-(4-(2-(4-(4-((5-(2,4-difluoro-5-methylphenyl)imdazo [1,2-a]pyrazin-8-yl)amino)-1H-pyrazol-1-yl)piperidin-1-yl)ethyl)piperazin-1-yl)phenyl) piperidine-2,6-dione]
1.5 | Cc1cccc(-c2cnc(Nc3cnn(C4CCN(CC(=O)N5CCN(c6ccc7c(c6)C(=O)N(C6CCC(=O)NC6=O)C7)CC5)CC4)c3)c3nccn23)c1 (centres unmarked) [Compound 16, 3-(1-oxo-6-(4-(2-(4-(4-((5-(m-tolyl)imidazo[1,2-a]pyrazin-8-yl)amino)-1H-pyrazol-1-yl)piperidin-1-yl)acetyl)piperazin-1-yl)isoindolin-2-yl)piperidine-2,6-dione]
1.5 | Cc1cc(-c2cnc(Nc3cnn(C4CCN(CCN5CCN(c6ccc(C7CCC(=O)NC7=O)cc6)C[C@@H]5C)CC4)c3)c3nccn23)c(F)cc1F (stereo partly drawn) [Compound 7, 3-(4-((S)-4-(2-(4-(4-((5-(2,4-difluoro-5-methylphenyl)imdazo [1,2-a]pyrazin-8-yl)amino)-1H-pyrazol-1-yl)piperidin-1-yl)ethyl)-3-methylpiperazin-1-yl)phenyl) piperidine-2,6-dione]
10 | Cc1cc(-c2cnc(Nc3cnn([C@H]4CC[C@H](CCN5CCN(c6ccc([C@@]7(C)CCC(=O)NC7=O)cc6)CC5)CC4)c3)c3nccn23)c(F)cc1F [Compound 81, (R)-3-(4-(4-(2-((trans)-4-(4-((5-(2,4-difluoro-5-methylphenyl)imidazo[1,2-a]pyrazin-8-yl)amino)-1H-pyrazol-1-yl)cyclohexyl)ethyl)piperazin-1-yl)phenyl)-3-methylpiperidine-2,6-dione]
1 | Cc1cc(-c2cnc(Nc3cnn(C4CCN(CC(=O)N5CCN(c6ccc7c(c6)C(=O)N(C6CCC(=O)NC6=O)C7=O)CC5)CC4)c3)c3nccn23)c(F)cc1F (centres unmarked) [Compound 6, 5-(4-(2-(4-(4-((5-(2,4-difluoro-5-methylphenyl)imidazo[1,2-a]pyrazin-8-yl)amino)-1H-pyrazol-1-yl)piperidin-1-yl)acetyl)piperazin-1-yl)-2-(2,6-dioxopiperidin-3-yl)isoindoline-1,3-dione]
1.3 | Cc1cc(-c2cnc(Nc3cnn(C4CCN(CCN5[C@H](C)CN(c6ccc(C7CCC(=O)NC7=O)cc6)C[C@@H]5C)CC4)c3)c3nccn23)c(F)cc1F (stereo partly drawn) [Compound 13, 3-(4-((3S,5R)-4-(2-(4-(4-((5-(2,4-difluoro-5-methylphenyl)imdazo [1,2-a]pyrazin-8-yl)amino)-1H-pyrazol-1-yl)piperidin-1-yl)ethyl)-3,5-dimethylpiperazin-1-yl)phenyl) piperidine-2,6-dione]
1.2 | Cc1cc(-c2cnc(Nc3cnn([C@H]4CCN(CCN5CCN(c6ccc(C7CCC(=O)NC7=O)cc6)CC5)C[C@@H]4F)c3)c3nccn23)c(F)cc1F (stereo partly drawn) [Compound 72, 3-(4-(4-(2-((3S,4S)-4-(4-((5-(2,4-difluoro-5-methylphenyl)imdazo [1,2-a]pyrazin-8-yl)amino)-1H-pyrazol-1-yl)-3-fluoropiperidin-1-yl)ethyl)piperazin-1-yl)phenyl) piperidine-2,6-dione]
2.3 | Cc1cccc(-c2cnc(Nc3cnn(C4CCN(CCCN5CCN(c6ccc(C7CCC(=O)NC7=O)cc6)CC5)CC4)c3)c3nccn23)c1 (centres unmarked) [Compound 4, 3-(4-(4-(3-(4-(4-((5-(m-tolyl)imidazo[1,2-a]pyrazin-8-yl)amino)-1H-pyrazol-1-yl)piperidin-1-yl)propyl)piperazin-1-yl)phenyl) piperidine-2,6-dione]
5.6 | O=C1CCC(c2ccc(N3CCN(CCN4CCC(n5cc(Nc6ncc(-c7ccc(F)cc7)n7ccnc67)cn5)CC4)CC3)cc2)C(=O)N1 (centres unmarked) [Compound 74, 3-(4-(4-(2-(4-(4-((5-(4-fluorophenyl)imidazo [1,2-a]pyrazin-8-yl)amino)-1H-pyrazol-1-yl)piperidin-1-yl)ethyl)piperazin-1-yl)phenyl) piperidine-2,6-dione]
0.5 | Cc1cc(-c2cnc(Nc3cnn(C4CCN(CC(=O)N5CCN(c6ccc7c(c6)C(=O)N(C6CCC(=O)NC6=O)C7)CC5)CC4)c3)c3nccn23)c(F)cc1F (centres unmarked) [Compound 18, 3-(6-(4-(2-(4-(4-((5-(2,4-difluoro-5-methylphenyl)imidazo[1,2-a]pyrazin-8-yl)amino)-1H-pyrazol-1-yl)piperidin-1-yl)acetyl)piperazin-1-yl)-1-oxoisoindolin-2-yl)piperidine-2,6-dione]
4.3 | Cc1cc(-c2cnc(Nc3cnn([C@H]4CC[C@@H](CCN5CCN(c6ccc(C7CCC(=O)NC7=O)cc6)CC5)CC4)c3)c3nccn23)c(F)cc1F (stereo partly drawn) [Compound 14, 3-(4-(4-(2-((cis)-4-(4-((5-(2,4-difluoro-5-methylphenyl)imidazo[1,2-a]pyrazin-8-yl)amino)-1H-pyrazol-1-yl)cyclohexyl)ethyl)piperazin-1-yl)phenyl) piperidine-2,6-dione]
1.3 | Cc1cccc(-c2cnc(Nc3cnn(C4CCN(CCCCN5CCN(c6ccc(C7CCC(=O)NC7=O)cc6)CC5)CC4)c3)c3nccn23)c1 (centres unmarked) [Compound 3, 3-(4-(4-(4-(4-(4-((5-(m-tolyl)imidazo[1,2-a]pyrazin-8-yl)amino)-1H-pyrazol-1-yl)piperidin-1-yl)butyl)piperazin-1-yl)phenyl) piperidine-2,6-dione]
0.51 | Cc1cc(-c2cnc(Nc3cnn(C4CCN(CC(=O)N5CCN(c6ccc7c(c6)CN(C6CCC(=O)NC6=O)C7=O)CC5)CC4)c3)c3nccn23)c(F)cc1F (centres unmarked) [Compound 10, 3-(5-(4-(2-(4-(4-((5-(2,4-difluoro-5-methylphenyl)imidazo[1,2-a]pyrazin-8-yl)amino)-1H-pyrazol-1-yl)piperidin-1-yl)acetyl)piperazin-1-yl)-1-oxoisoindolin-2-yl)piperidine-2,6-dione]
5 | Cc1cccc(-c2cnc(Nc3cnn(C4CCN(CC(=O)N5CCN(c6ccc7c(c6)C(=O)N(C6CCC(=O)NC6=O)C7=O)CC5)CC4)c3)c3nccn23)c1 (centres unmarked) [Compound 1, 2-(2,6-dioxopiperidin-3-yl)-5-(4-(2-(4-(4-((5-(m-tolyl)imidazo[1,2-a]pyrazin-8-yl)amino)-1H-pyrazol-1-yl)piperidin-1-yl)acetyl)piperazin-1-yl)isoindoline-1,3-dione]
